Test results reported in US20050234046A1 (Kalypsys, Inc., priority 2004, published 2005).

Legend:
Assay in all cases: Transient transfection (transactivation) assay in CV-1 cells, GAL4-PPAR chimera, luciferase reporter
Type in all cases: cell-based
PPAR delta = target: T1, PPAR delta (Homo sapiens, UniProt Q03181)
T1 construct: expressed in transfected cells; host or cells: CV-1 cells
T1 sequence (Q03181 211-439 limits assumed): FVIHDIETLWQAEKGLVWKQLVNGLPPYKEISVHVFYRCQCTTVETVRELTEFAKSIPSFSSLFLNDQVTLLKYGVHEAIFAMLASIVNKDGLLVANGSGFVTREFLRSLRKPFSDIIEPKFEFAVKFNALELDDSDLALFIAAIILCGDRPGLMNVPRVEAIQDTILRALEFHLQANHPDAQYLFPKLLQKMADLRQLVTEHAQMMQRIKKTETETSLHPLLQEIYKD

PPAR gamma = target: T2, PPAR gamma (Homo sapiens, UniProt P37231)
T2 construct: expressed in transfected cells; host or cells: CV-1 cells
T2 sequence (P37231 238-503 limits assumed): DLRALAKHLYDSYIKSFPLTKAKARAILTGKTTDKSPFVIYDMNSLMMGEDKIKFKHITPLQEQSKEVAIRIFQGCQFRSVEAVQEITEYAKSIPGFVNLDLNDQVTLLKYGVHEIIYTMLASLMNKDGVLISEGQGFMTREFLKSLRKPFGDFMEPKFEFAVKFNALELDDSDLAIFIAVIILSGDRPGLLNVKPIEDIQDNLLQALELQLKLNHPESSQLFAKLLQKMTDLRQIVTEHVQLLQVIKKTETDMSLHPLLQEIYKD

PPAR alpha = target: T3, PPAR alpha (Homo sapiens, UniProt Q07869)
T3 construct: expressed in transfected cells; host or cells: CV-1 cells
T3 sequence (Q07869 239-466 limits assumed): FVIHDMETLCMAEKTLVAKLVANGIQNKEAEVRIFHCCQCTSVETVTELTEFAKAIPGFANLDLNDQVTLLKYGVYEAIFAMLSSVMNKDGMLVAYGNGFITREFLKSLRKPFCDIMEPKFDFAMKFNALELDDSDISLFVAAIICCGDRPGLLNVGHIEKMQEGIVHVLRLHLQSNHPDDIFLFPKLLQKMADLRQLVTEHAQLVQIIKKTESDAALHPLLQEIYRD
Method in brief: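 GAL4 DNA-binding domain fused to PPAR ligand binding domain, co-transfected into CV-1 cells with a luciferase reporter carrying four or five GAL4 sites. Replated cells in phenol-red free DME with 5% delipidated calf serum were treated with compound or 1% DMSO for 20-24 hours; luciferase read for EC50 and efficacy.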

COc1ccc(S(=O)(=O)N2[C@H](C)CN(c3ccc(C(F)(F)F)cn3)C[C@@H]2C)cc1CC(=O)O [Example 78, {5-[2,6-Dimethyl-4-(5-trifluoromethyl-pyridin-2-yl)-piperazine-1-sulfonyl]-2-methoxy-phenyl}-acetic acid]
EC50 (PPAR delta): < 5 µM | EC50 (PPAR gamma): > 100 µM | EC50 (PPAR alpha): > 100 µM

COc1ccc(CC(=O)O)cc1S(=O)(=O)N1CCN(c2ccc(C(F)(F)F)cc2)CC1 [Example 79, {4-Methoxy-3-[4-(4-trifluoromethyl-phenyl)-piperazine-1-sulfonyl]-phenyl}-acetic acid]
EC50 (PPAR delta): < 5 µM | EC50 (PPAR gamma): 5 to 100 µM | EC50 (PPAR alpha): > 100 µM

COc1ccc(CC(=O)O)cc1S(=O)(=O)N1CCN(c2ccc(C(F)(F)F)cn2)CC1 [Example 80]
EC50 (PPAR delta): < 5 µM | EC50 (PPAR gamma): 5 to 100 µM | EC50 (PPAR alpha): > 100 µM

COc1ccc(CC(=O)O)cc1S(=O)(=O)N1CCN(c2ccc(C(F)(F)F)cn2)CC1C (stereo not drawn) [Example 81, {4-Methoxy-3-[2-methyl-4-(5-trifluoromethyl-pyridin-2-yl)-piperazine-1-sulfonyl]-phenyl}-acetic acid]
EC50 (PPAR delta): 5 to 100 µM | EC50 (PPAR gamma): 5 to 100 µM | EC50 (PPAR alpha): > 100 µM

COc1ccc(CC(=O)O)cc1S(=O)(=O)N1[C@H](C)CN(c2ccc(C(F)(F)F)cn2)C[C@@H]1C [Example 82, {3-[2,6-Dimethyl-4-(5-trifluoromethyl-pyridin-2-yl)-piperazine-1-sulfonyl]-4-methoxy-phenyl}-acetic acid]
EC50 (PPAR delta): 5 to 100 µM | EC50 (PPAR gamma): > 100 µM | EC50 (PPAR alpha): > 100 µM

Cc1ccc(S(=O)(=O)N2[C@H](C)CN(c3ccc(Cl)c(Cl)c3)C[C@@H]2C)cc1CC(=O)O [Example 83, {5-[4-(3,4-Dichloro-phenyl)-2,6-dimethyl-piperazine-1-sulfonyl]-2-methyl-phenyl}-acetic acid]
EC50 (PPAR delta): < 5 µM | EC50 (PPAR gamma): > 100 µM | EC50 (PPAR alpha): > 100 µM

CN(C)Cc1cc(CC(=O)O)cc(S(=O)(=O)N2CCN(c3ccc(C(F)(F)F)cc3)CC2)c1 [Example 84, {3-Dimethylaminomethyl-5-[4-(4-trifluorometbyl-phenyl)-piperazine-1-sulfonyl]-phenyl}-acetic acid]
EC50 (PPAR delta): > 100 µM | EC50 (PPAR gamma): > 100 µM | EC50 (PPAR alpha): > 100 µM

COCc1cc(CC(=O)O)cc(S(=O)(=O)N2CCN(c3ccc(C(F)(F)F)cc3)CC2)c1 [Example 85, {3-Methoxymethyl-5-[4-(4-trifluoromethyl-phenyl)-piperazine-1-sulfonyl]-phenyl}-acetic acid]
EC50 (PPAR delta): 5 to 100 µM | EC50 (PPAR gamma): > 100 µM | EC50 (PPAR alpha): > 100 µM

Cc1ccc(S(=O)(=O)N2CCN(c3cnc(Cl)cn3)CC2)cc1CC(=O)O [Example 86]
EC50 (PPAR delta): > 100 µM | EC50 (PPAR gamma): > 100 µM | EC50 (PPAR alpha): > 100 µM

Cc1ccc(S(=O)(=O)N2CCN(c3ccc(OC(F)(F)F)cc3)CC2)cc1CC(=O)O [Example 87, {2-Methyl-5-[4-(4-trifluoromethoxy-phenyl)-piperazine-1-sulfonyl]-phenyl}-acetic acid]
EC50 (PPAR delta): < 5 µM | EC50 (PPAR gamma): 5 to 100 µM | EC50 (PPAR alpha): < 5 µM

CCNCc1cc(CC(=O)O)cc(S(=O)(=O)N2CCN(c3ccc(C(F)(F)F)cc3)CC2)c1 [Example 88, {3-Ethylaminomethyl-5-[4-(4-trifluoromethyl-phenyl)-piperazine-1-sulfonyl]-phenyl}-acetic acid]
EC50 (PPAR delta): > 100 µM | EC50 (PPAR gamma): > 100 µM | EC50 (PPAR alpha): > 100 µM

COCCNCc1cc(CC(=O)O)cc(S(=O)(=O)N2CCN(c3ccc(C(F)(F)F)cc3)CC2)c1 [Example 89, {3-[(2-Methoxy-ethylamino)-methyl]-5-[4-(4-trifluoromethyl-phenyl)-piperazine-1-sulfonyl]-phenyl}-acetic acid]
EC50 (PPAR delta): > 100 µM | EC50 (PPAR gamma): > 100 µM | EC50 (PPAR alpha): > 100 µM

Cc1ccc(S(=O)(=O)N2CCN(c3ccc(C(F)(F)F)c(F)c3)[C@@H](C)C2)cc1CC(=O)O [Example 90, {5-[4-(3-Fluoro-4-trifluoromethyl-phenyl)-3-(S)-methyl-piperazine-1-sulfonyl]-2-methyl-phenyl}-acetic acid]
EC50 (PPAR delta): < 5 µM | EC50 (PPAR gamma): 5 to 100 µM | EC50 (PPAR alpha): < 5 µM

O=C(O)Cc1cc(COCCO)cc(S(=O)(=O)N2CCN(c3ccc(C(F)(F)F)cc3)CC2)c1 [Example 91, {3-(2-Hydroxy-ethoxymethyl)-5-[4-(4-trifluoromethyl-phenyl)-piperazine-1-sulfonyl]-phenyl}-acetic acid]
EC50 (PPAR delta): > 100 µM | EC50 (PPAR gamma): > 100 µM | EC50 (PPAR alpha): > 100 µM

O=C(O)Cc1cccc(S(=O)(=O)N2CCN(c3ccc(OC(F)(F)F)cc3)CC2)c1 [Example 92, {3-[4-(4-Trifluoromethoxy-phenyl)-piperazine-1-sulfonyl]-phenyl}-acetic acid]
EC50 (PPAR delta): < 5 µM | EC50 (PPAR gamma): > 100 µM | EC50 (PPAR alpha): < 5 µM

Cc1ccc(S(=O)(=O)N2CCN(c3ccc(C(F)(F)F)c(Cl)c3)CC2)cc1CC(=O)O [Example 93, {5-[4-(3-Chloro-4-trifluorometbyl-phenyl)-piperazine-1-sulfonyl]-2-methyl-phenyl}-acetic acid]
EC50 (PPAR delta): < 5 µM | EC50 (PPAR gamma): 5 to 100 µM | EC50 (PPAR alpha): < 5 µM

CCC1CN(S(=O)(=O)c2ccc(C)c(CC(=O)O)c2)CCN1c1ccc(C(F)(F)F)cn1 (stereo not drawn) [Example 94, {5-[3-Ethyl-4-(5-trifluoromethyl-pyridin-2-yl)-piperazine-1-sulfonyl]-2-methyl-phenyl}-acetic acid]
EC50 (PPAR delta): < 5 µM | EC50 (PPAR gamma): < 5 µM | EC50 (PPAR alpha): 5 to 100 µM

Cc1ccc(S(=O)(=O)N2CCN(c3ccc(C(F)(F)F)nc3)CC2)cc1CC(=O)O [Example 95, {2-Methyl-5-[4-(6-trifluoromethyl-pyridin-3-yl)-piperazine-1-sulfonyl]-phenyl}-acetic acid]
EC50 (PPAR delta): < 5 µM | EC50 (PPAR gamma): > 100 µM | EC50 (PPAR alpha): > 100 µM

O=C(O)Cc1cccc(S(=O)(=O)N2CCN(c3ccc(C(F)(F)F)cc3Br)CC2)c1 [Example 96]
EC50 (PPAR delta): < 5 µM | EC50 (PPAR gamma): > 100 µM | EC50 (PPAR alpha): < 5 µM

Cc1ccc(S(=O)(=O)N2CCN(c3ccc(C(F)(F)F)cc3Br)CC2)cc1CC(=O)O [Example 97, {5-[4-(2-Bromo-4-trifluoromethyl-phenyl)-piperazine-1-sulfonyl]-2-methyl-phenyl-}acetic acid]
EC50 (PPAR delta): < 5 µM | EC50 (PPAR gamma): > 100 µM | EC50 (PPAR alpha): < 5 µM

CCC1CN(c2ccc(C(F)(F)F)c(Cl)c2)CCN1S(=O)(=O)c1ccc(C)c(CC(=O)O)c1 (stereo not drawn) [Example 98, {5-[2-Ethyl-4-(3-chloro-4-trifluoromethyl-phenyl)-piperazine-1-sulfonyl]-2-methyl-phenyl}-acetic acid]
EC50 (PPAR delta): < 5 µM | EC50 (PPAR gamma): > 100 µM | EC50 (PPAR alpha): < 5 µM

Cc1ccc(S(=O)(=O)N2CCN(c3ccc(OC(F)(F)F)cc3)[C@@H](C)C2)cc1CC(=O)O [Example 99]
EC50 (PPAR delta): < 5 µM | EC50 (PPAR gamma): 5 to 100 µM | EC50 (PPAR alpha): < 5 µM

Cc1ccc(S(=O)(=O)N2[C@H](C)CN(c3ccc(OC(F)(F)F)cc3)C[C@@H]2C)cc1CC(=O)O [Example 100, {5-[2,6-Dimethyl-4-(4-trifluoromethoxy-phenyl)-piperazine-1-sulfonyl]-2-methyl-phenyl}-acetic acid]
EC50 (PPAR delta): < 5 µM | EC50 (PPAR gamma): 5 to 100 µM | EC50 (PPAR alpha): 5 to 100 µM

Cc1ccc(S(=O)(=O)N2CCN(c3ccc(Cl)c(Cl)c3)C[C@@H]2C)cc1CC(=O)O [Example 101, {5-[4-(3,4-Dichloro-phenyl)-2-(S)-methyl-piperazine-1-sulfonyl]-2-methyl-phenyl}-acetic acid]
EC50 (PPAR delta): < 5 µM | EC50 (PPAR gamma): 5 to 100 µM | EC50 (PPAR alpha): 5 to 100 µM

Cc1ccc(S(=O)(=O)N2CCN(c3ccc(Cl)c(Cl)c3)[C@@H](C)C2)cc1CC(=O)O [Example 102, {5-[4-(3,4-Dichloro-phenyl)-3-(S)-methyl-piperazine-1-sulfonyl]-2-methyl-phenyl}-acetic acid]
EC50 (PPAR delta): < 5 µM | EC50 (PPAR gamma): 5 to 100 µM | EC50 (PPAR alpha): 5 to 100 µM

Cc1ccc(S(=O)(=O)N2[C@@H](C)CN(c3ccc(C(F)(F)F)cn3)C[C@@H]2C)cc1CC(=O)O [Example 103, {5-[2,6-(S,S)-Dimethyl-4-(5-trifluoromethyl-pyridin-2-yl)-piperazine-1-sulfonyl]-2-methyl-phenyl}-acetic acid]
EC50 (PPAR delta): < 5 µM | EC50 (PPAR gamma): 5 to 100 µM | EC50 (PPAR alpha): 5 to 100 µM

Cc1ccc(S(=O)(=O)N2[C@H](C)CN(c3ccc(C(F)(F)F)c(Cl)c3)C[C@@H]2C)cc1CC(=O)O [Example 107, {5-[4-(3-Chloro-4-trifluoromethyl-phenyl)-2,6-dimethyl-piperazine-1-sulfonyl]-2-methyl-phenyl}-acetic acid]
EC50 (PPAR delta): < 5 µM | EC50 (PPAR gamma): > 100 µM | EC50 (PPAR alpha): > 100 µM

Cc1ccc(S(=O)(=O)N2C[C@H](C)N(c3ccc(C(F)(F)F)cn3)[C@@H](C)C2)cc1CC(=O)O [Example 108, {5-[3,5-(S,S)-Dimethyl-4-(5-trifluoromethyl-pyridin-2-yl)-piperazine-1-sulfonyl]-2-methyl-phenyl}-acetic acid]
EC50 (PPAR delta): < 5 µM | EC50 (PPAR gamma): 5 to 100 µM | EC50 (PPAR alpha): 5 to 100 µM
